In PMC11167047 (Cell Death Discovery, 2024):

Assays:
Assay in all cases: kinome screen (33PanQinase)
Type in all cases: biochemical
[1] = target: T1, MKNK2 (Homo sapiens, UniProt Q9HBH9)
T1 construct: purchased Reaction Biology Europe GmbH (formerly ProQinase)
Description: (§1) The Kinome Screening was performed by Reaction Biology Europe GmbH (http://reactionbiology.com; Freiburg i. Br., Germany).

[2] = target: T2, CAMK1D (Homo sapiens, UniProt Q8IU85)
T2 construct: purchased Reaction Biology Europe GmbH (formerly ProQinase)
Description: as §1

[3] = target: T3, SGK2 (Homo sapiens, UniProt Q9HBY8)
T3 construct: purchased Reaction Biology Europe GmbH (formerly ProQinase)
T3 sequence (Q9HBY8 1-367): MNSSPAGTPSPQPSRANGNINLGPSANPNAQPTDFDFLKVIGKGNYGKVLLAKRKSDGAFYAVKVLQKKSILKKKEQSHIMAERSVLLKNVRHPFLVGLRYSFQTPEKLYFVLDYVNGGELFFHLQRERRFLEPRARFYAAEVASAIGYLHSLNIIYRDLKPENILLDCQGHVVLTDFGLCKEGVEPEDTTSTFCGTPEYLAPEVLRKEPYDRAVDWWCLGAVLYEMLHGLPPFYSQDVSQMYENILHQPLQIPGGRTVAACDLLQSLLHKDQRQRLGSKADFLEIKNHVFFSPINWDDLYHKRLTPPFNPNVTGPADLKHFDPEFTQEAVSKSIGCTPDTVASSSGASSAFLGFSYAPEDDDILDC
Description: as §1

[4] = target: T4, TTK (Homo sapiens, UniProt P33981)
T4 construct: purchased Reaction Biology Europe GmbH (formerly ProQinase)
T4 sequence (P33981 1-857): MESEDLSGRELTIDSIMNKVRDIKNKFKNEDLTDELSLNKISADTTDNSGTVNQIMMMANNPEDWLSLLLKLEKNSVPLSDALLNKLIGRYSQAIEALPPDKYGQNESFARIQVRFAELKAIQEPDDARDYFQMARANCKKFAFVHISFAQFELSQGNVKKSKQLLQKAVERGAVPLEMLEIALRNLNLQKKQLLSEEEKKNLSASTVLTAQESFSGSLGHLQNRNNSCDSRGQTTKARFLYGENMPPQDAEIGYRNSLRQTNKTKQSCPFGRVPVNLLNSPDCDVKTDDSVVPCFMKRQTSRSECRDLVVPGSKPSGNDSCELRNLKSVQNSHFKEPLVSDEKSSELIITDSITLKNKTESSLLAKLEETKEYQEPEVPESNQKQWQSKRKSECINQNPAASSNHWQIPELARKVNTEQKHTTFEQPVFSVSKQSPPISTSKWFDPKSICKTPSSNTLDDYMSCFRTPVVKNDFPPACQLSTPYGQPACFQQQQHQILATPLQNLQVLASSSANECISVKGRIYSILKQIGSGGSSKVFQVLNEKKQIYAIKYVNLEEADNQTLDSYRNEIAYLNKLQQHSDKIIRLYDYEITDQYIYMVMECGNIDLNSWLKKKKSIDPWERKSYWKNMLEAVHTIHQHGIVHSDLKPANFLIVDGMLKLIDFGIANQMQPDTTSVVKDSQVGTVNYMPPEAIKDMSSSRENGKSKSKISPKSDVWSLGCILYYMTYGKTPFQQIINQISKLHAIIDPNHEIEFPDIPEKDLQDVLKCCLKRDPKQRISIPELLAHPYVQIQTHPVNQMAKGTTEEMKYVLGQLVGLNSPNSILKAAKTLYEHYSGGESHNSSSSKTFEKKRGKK
Description: as §1

[5] = target: T5, WNK3 (Homo sapiens, UniProt Q9BYP7)
T5 construct: purchased Reaction Biology Europe GmbH (formerly ProQinase)
T5 sequence (Q9BYP7 whole entry): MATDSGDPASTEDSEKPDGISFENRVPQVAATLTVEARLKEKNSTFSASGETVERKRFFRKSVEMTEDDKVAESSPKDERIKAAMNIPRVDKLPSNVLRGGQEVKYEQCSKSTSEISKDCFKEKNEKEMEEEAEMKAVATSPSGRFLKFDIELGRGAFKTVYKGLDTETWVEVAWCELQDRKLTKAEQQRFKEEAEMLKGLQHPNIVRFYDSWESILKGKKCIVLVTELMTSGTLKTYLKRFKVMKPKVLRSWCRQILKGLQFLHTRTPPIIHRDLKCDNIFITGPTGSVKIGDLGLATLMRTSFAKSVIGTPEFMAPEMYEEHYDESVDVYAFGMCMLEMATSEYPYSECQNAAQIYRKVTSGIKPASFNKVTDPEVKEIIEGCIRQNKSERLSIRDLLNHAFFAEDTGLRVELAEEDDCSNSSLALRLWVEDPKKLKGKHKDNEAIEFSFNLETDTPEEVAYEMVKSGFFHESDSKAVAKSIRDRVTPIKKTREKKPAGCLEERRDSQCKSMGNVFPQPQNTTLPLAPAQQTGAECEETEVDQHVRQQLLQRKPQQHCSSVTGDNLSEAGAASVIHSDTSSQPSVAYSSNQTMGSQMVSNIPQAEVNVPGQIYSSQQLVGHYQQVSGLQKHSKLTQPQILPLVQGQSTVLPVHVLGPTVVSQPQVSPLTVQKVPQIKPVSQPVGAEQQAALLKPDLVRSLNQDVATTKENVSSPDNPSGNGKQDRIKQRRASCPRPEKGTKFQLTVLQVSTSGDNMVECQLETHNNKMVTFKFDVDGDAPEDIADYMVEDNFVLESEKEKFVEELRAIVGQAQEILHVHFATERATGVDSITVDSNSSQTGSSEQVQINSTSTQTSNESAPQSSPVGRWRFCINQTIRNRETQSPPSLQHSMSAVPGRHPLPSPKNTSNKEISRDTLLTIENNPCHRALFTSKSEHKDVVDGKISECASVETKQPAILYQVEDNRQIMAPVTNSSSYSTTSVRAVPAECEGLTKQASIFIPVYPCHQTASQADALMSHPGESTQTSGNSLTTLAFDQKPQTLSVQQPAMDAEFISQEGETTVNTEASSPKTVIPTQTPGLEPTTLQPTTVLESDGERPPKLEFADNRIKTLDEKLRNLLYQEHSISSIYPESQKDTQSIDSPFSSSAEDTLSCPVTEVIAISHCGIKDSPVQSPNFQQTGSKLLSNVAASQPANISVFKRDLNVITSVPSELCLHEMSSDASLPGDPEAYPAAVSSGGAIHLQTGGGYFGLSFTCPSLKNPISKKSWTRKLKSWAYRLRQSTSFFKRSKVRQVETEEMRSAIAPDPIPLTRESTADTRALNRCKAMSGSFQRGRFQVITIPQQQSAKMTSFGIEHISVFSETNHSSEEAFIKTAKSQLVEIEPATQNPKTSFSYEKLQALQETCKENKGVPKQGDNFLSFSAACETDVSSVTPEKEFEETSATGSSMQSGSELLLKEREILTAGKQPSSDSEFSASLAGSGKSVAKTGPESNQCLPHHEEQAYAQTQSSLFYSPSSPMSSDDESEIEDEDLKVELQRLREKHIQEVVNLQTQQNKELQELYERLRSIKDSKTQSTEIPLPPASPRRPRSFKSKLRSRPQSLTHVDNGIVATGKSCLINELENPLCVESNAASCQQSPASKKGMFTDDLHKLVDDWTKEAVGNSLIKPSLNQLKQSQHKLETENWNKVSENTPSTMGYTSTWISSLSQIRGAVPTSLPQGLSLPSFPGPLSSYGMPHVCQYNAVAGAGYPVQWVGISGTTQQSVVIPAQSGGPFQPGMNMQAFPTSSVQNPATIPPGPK
Description: as §1

[6] = target: T6, PAK6 (Homo sapiens, UniProt Q9NQU5)
T6 construct: purchased Reaction Biology Europe GmbH (formerly ProQinase)
T6 sequence (Q9NQU5 whole entry): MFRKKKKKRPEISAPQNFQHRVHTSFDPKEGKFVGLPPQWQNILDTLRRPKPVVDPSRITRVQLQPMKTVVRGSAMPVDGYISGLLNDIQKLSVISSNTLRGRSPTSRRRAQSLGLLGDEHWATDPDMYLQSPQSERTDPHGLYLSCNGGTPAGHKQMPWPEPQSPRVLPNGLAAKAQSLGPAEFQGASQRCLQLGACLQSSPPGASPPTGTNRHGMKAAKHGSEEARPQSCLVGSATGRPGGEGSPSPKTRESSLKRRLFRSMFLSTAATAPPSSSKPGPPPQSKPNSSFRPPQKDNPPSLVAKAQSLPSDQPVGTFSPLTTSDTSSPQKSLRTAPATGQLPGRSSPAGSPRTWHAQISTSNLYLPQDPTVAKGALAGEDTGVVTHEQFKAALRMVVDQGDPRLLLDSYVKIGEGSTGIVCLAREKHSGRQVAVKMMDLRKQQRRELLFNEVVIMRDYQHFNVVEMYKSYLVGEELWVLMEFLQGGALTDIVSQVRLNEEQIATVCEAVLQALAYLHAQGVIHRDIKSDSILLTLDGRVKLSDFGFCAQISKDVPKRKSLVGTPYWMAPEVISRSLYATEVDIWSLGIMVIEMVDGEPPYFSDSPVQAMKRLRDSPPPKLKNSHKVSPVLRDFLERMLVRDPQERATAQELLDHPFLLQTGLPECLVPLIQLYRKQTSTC
Description: as §1

[7] = target: T7, ERBB4 (Homo sapiens, UniProt Q15303)
T7 construct: purchased Reaction Biology Europe GmbH (formerly ProQinase)
T7 sequence (Q15303 26-1308): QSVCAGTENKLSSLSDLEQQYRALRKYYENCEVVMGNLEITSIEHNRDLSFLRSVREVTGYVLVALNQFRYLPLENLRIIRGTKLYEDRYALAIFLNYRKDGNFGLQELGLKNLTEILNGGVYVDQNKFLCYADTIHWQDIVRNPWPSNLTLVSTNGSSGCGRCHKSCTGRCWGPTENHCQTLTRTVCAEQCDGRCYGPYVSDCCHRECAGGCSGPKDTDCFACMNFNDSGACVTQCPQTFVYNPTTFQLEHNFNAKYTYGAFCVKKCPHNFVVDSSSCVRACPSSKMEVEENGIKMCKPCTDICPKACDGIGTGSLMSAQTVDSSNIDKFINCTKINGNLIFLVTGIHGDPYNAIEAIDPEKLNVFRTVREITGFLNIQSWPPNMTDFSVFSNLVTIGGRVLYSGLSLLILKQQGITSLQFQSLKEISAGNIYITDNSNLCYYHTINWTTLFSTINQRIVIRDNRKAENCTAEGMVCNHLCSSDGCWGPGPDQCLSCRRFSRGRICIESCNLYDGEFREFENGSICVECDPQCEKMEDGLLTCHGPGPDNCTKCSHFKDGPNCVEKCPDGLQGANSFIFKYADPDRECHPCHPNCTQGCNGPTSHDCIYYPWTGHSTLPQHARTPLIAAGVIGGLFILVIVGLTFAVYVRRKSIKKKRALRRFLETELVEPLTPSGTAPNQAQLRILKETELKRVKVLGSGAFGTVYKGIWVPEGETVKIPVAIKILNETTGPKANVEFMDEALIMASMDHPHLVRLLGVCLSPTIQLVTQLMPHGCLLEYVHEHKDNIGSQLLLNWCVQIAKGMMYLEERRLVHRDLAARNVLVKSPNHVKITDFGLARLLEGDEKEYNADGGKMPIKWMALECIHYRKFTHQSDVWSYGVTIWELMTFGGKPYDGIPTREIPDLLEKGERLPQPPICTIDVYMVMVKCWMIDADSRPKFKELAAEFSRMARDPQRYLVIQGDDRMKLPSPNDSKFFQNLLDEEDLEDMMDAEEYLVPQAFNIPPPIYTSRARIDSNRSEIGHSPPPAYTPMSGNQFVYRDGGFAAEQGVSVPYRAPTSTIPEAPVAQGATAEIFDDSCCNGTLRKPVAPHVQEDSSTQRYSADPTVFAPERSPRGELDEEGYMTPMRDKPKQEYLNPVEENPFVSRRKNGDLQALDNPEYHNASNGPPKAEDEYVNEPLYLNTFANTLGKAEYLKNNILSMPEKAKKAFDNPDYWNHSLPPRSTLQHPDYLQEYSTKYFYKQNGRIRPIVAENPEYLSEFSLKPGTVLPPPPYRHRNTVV
Description: as §1

[8] = target: T8, ACVR2B (Homo sapiens, UniProt Q13705)
T8 construct: purchased Reaction Biology Europe GmbH (formerly ProQinase)
T8 sequence (Q13705 19-512): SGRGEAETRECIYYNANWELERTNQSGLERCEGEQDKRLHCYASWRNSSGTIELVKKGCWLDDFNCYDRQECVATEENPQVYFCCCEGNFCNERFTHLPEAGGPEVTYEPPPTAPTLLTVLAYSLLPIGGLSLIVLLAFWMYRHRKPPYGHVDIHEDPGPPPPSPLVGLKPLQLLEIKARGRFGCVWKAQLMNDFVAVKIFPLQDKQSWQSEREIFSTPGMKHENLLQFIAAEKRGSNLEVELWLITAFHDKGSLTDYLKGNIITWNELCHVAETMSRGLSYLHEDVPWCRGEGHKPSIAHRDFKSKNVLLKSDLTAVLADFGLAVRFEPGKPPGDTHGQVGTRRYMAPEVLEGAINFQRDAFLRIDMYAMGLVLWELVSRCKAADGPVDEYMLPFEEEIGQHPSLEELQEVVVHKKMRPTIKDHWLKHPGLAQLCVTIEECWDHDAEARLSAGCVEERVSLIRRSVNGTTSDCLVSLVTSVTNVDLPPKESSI
Description: as §1

[9] = target: T9, IKKε (Homo sapiens, UniProt Q14164)
T9 construct: purchased Reaction Biology Europe GmbH (formerly ProQinase)
T9 sequence (Q14164 1-716): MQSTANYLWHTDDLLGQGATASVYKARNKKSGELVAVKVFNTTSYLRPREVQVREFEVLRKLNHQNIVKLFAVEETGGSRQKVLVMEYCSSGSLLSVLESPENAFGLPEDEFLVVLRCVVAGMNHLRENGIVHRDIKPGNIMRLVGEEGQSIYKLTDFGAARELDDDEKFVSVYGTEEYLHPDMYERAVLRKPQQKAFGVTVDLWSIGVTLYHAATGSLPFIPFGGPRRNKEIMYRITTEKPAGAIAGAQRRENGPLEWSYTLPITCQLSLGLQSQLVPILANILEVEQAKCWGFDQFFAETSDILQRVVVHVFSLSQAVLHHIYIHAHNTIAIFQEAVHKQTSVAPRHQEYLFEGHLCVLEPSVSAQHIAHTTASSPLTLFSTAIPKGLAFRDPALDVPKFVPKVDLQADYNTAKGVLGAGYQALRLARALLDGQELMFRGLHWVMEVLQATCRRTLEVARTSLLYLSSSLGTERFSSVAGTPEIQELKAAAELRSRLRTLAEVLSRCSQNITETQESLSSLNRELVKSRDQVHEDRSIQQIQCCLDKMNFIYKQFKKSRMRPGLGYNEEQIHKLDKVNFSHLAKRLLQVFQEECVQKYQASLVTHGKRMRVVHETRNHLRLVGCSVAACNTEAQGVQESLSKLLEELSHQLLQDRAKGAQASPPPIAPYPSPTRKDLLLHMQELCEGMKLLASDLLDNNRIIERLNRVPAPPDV
Description: as §1

[10] = target: T10, CDK2/CycE1 (Homo sapiens, UniProt P24941)
T10 construct: purchased Reaction Biology Europe GmbH (formerly ProQinase)
Description: as §1

T1 sequence (Q9HBH9 whole entry): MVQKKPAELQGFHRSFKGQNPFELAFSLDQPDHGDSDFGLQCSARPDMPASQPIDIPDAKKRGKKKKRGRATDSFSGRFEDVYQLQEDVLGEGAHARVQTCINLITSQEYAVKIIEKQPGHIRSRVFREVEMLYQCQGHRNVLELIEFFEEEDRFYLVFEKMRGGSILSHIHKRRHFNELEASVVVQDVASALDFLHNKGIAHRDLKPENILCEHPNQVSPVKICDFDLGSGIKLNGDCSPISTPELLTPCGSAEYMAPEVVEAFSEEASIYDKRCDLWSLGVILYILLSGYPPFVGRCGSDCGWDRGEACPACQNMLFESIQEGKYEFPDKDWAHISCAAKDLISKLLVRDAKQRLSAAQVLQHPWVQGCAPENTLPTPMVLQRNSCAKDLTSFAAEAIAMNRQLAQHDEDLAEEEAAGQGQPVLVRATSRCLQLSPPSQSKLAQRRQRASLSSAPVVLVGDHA

| SMILES | residual kinase activity ([1]; 0.3 µM) | residual kinase activity ([2]; 0.3 µM) | residual kinase activity ([3]; 0.3 µM) | residual kinase activity ([4]; 0.3 µM) | residual kinase activity ([5]; 0.3 µM) | residual kinase activity ([6]; 0.3 µM) | residual kinase activity ([7]; 0.3 µM) | residual kinase activity ([8]; 0.3 µM) | residual kinase activity ([9]; 0.3 µM) | residual kinase activity ([10]; 0.3 µM) | also measured |
| --- | --- | --- | --- | --- | --- | --- | --- | --- | --- | --- | --- |
| COc1ccnc2[nH]cc(-c3cc(N)nc(N)c3)c12 [meriolin 16] | 62 % of control | 81 % of control | 74 % of control | 8 % of control | 85 % of control | 76 % of control | 90 % of control | 74 % of control | 61 % of control | 0 % of control | residual kinase activity ([1]; 0.03 µM): 93 % of control; residual kinase activity ([2]; 0.03 µM): 102 % of control; residual kinase activity ([3]; 0.03 µM): 97 % of control; residual kinase activity ([4]; 0.03 µM): 49 % of control; residual kinase activity ([5]; 0.03 µM): 85 % of control; residual kinase activity ([6]; 0.03 µM): 88 % of control; residual kinase activity ([7]; 0.03 µM): 108 % of control; residual kinase activity ([8]; 0.03 µM): 81 % of control; residual kinase activity ([9]; 0.03 µM): 94 % of control; residual kinase activity ([10]; 0.03 µM): 16 % of control |
| c1ccc(CNc2cc(-c3c[nH]c4ncccc34)ccn2)cc1 [meriolin 36] | 16 % of control | 70 % of control | 88 % of control | 55 % of control | 106 % of control | 54 % of control | 101 % of control | 22 % of control | 40 % of control | 1 % of control | residual kinase activity ([1]; 3 µM): 3 % of control; residual kinase activity ([2]; 3 µM): 38 % of control; residual kinase activity ([3]; 3 µM): 32 % of control; residual kinase activity ([4]; 3 µM): 17 % of control; residual kinase activity ([5]; 3 µM): 104 % of control; residual kinase activity ([6]; 3 µM): 14 % of control; residual kinase activity ([7]; 3 µM): 56 % of control; residual kinase activity ([8]; 3 µM): 5 % of control; residual kinase activity ([9]; 3 µM): 6 % of control; residual kinase activity ([10]; 3 µM): 1 % of control |
